The results in this text go back to publication PMC7515950, “Physiologically based pharmacokinetic modeling to assess metabolic drug–drug interaction risks and inform the drug label for fedratinib” (Cancer Chemotherapy and Pharmacology, 2020).

A short description of data set [1]: Caco-2/TC7 permeability (Study AIV0208). Type of data set: in vitro ADME, human. The note with it: human, Caco-2. The text has this:
(§1) By default, the QGut is set to be the mean value (i.e., 6.5 L/h) in the PBPK model of fedratinib.
In general terms: Caco-2 cells form a polarised layer with tight junctions and transporters.

The subject of data set [2] is Caco-2/TC7. The data set can be described thus: Caco-2/TC7 permeability (Study AIV0208). The note with it: Apical pH:Basolateral pH 7.4:7.4; Simcyp input. Type of data set: in vitro ADME, human.
Description: as §1

The target of data set [3] is T1, OCT2 (Homo sapiens, UniProt O15244).
T1 sequence (O15244 1-555): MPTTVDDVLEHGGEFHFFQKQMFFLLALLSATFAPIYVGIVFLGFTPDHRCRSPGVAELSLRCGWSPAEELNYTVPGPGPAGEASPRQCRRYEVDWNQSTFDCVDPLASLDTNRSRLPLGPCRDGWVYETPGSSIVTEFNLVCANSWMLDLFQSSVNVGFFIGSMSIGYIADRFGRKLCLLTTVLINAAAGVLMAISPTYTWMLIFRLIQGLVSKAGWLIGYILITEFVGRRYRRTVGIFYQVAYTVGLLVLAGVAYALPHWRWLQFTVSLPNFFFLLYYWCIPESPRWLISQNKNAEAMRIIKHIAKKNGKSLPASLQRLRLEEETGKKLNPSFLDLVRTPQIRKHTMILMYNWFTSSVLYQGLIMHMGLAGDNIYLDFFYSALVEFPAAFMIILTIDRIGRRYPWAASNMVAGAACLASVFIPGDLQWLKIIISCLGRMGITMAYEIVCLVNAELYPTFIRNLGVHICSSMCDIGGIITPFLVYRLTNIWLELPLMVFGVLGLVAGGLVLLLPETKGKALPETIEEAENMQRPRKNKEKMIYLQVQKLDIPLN
The experiment in a line: OCT2 inhibition, CHO-hOCT2 cells (TRI0013). Type of data set: in vitro ADME. Also on record: expressed in transfected cells; host or cells: CHO^Fi-hOCT2. The text has this:
(§2) The reported IC50 values were converted to Ki values using the Cheng-Prusoff equation [10]:
(§3) The transporter inhibition parameters (Ki) for fedratinib were derived from the experimentally determined IC50 values using the Cheng-Prusoff equation, i.e., Ki = IC50/(1+[S]/Km) with the substrate concentrations ([S]) reported in the experimental studies and the substrate Km values collected from literature, as summarized in Table 13.

The nature of data set [4]: In vitro binding to human plasma proteins (Study LPR1082). Type of data set: in vitro ADME. The note with it: mainly bound to α1-acid glycoprotein, read-out: fu (unbound fraction in plasma). The text has this: (§4) The physicochemical properties and blood binding parameters of fedratinib including molecular weight, logP, pKa, fu, and B/P were experimentally measured and listed in Table 1.

Data set [5] can be described thus: Physicochemical properties (Study QUA-PG-2011-20593). Particulars: for pKa: free form is a diprotic base.
Description: as §4

Data set [6] addresses T2, BCRP (Homo sapiens, UniProt Q9UNQ0).
T2 sequence (Q9UNQ0 1-655): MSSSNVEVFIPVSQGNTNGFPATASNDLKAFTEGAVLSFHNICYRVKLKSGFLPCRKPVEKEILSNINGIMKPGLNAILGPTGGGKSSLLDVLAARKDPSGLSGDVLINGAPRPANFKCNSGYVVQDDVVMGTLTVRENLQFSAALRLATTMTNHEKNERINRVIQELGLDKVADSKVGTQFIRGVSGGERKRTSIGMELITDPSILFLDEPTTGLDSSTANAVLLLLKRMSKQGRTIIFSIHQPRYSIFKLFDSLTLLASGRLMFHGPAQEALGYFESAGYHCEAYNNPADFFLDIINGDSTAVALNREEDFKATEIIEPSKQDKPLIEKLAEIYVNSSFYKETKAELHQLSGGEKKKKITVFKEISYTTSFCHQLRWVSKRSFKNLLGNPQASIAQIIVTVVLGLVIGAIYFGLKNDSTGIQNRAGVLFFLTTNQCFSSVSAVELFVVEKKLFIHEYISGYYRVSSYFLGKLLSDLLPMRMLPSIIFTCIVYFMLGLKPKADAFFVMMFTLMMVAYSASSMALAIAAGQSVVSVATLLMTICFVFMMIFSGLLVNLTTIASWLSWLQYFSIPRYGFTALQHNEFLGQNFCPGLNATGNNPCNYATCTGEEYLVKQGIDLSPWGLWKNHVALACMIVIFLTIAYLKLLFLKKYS
The data set can be described thus: BCRP inhibition, vesicle-based (TRI0013). Type of data set: in vitro ADME.
Description: as §2, §3

Data set [7] has as its target T3, OATP1B1 (Homo sapiens, UniProt Q9Y6L6).
T3 sequence (Q9Y6L6 1-691): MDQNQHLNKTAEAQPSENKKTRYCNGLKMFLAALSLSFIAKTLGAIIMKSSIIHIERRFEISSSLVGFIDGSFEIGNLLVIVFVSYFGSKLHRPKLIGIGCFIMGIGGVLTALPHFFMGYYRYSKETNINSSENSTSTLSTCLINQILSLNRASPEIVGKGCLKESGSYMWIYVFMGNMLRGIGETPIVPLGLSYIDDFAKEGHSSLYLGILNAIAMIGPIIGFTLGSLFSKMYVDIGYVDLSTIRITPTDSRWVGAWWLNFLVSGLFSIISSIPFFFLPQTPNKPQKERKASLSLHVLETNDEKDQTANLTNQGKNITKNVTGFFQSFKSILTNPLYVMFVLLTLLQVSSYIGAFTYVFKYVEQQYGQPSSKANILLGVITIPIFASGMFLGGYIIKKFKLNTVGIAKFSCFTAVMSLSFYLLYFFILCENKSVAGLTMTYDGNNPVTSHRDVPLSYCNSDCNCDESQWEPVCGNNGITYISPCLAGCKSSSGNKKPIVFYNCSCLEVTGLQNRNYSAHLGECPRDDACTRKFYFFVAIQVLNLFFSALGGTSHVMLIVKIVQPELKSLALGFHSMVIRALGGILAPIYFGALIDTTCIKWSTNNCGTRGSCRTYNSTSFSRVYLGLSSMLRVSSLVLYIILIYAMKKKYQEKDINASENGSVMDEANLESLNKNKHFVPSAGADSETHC
The experiment in a line: OATP1B1 inhibition, HEK-hOATP1B1 cells (TRE0075). Type of data set: in vitro ADME. Details: expressed in transfected cells; host or cells: HEK^TR-hOATP1B1.
Description: as §2, §3

With `Cc1cnc(Nc2ccc(OCCN3CCCC3)cc2)nc1Nc1cccc(S(=O)(=O)NC(C)(C)C)c1` [Fedratinib], the Papp at 40 μM in data set [1] (Apical pH:Basolateral pH 6.5:7.4, 40 μM fedratinib) was found to be 2.1 nm/s. This compound also gave an apparent permeability coefficient (Papp) at 100 μM in data set [1] (Apical pH:Basolateral pH 7.4:7.4, 100 μM fedratinib) of 178 nm/s. The PCaco-2 in data set [2] is recorded as 17.800 10E-06 cm/s. Besides, the Ki in data set [3] (from IC50 by Cheng-Prusoff, probe metformin) stood at 0.71 µM; in data set [6] (from IC50 by Cheng-Prusoff, probe methotrexate) it was 27.8 µM; in data set [7] (from IC50 by Cheng-Prusoff, probe estradiol-17β-glucuronide), 14.6 µM. Besides, the IC50 in data set [3] (probe metformin 25 μM) is 0.78 µM; in data set [6] (probe methotrexate 100 μM) it was 29.9 µM; in data set [7] (probe estradiol-17β-glucuronide 1 μM), 16.4 µM. In data set [4], the fraction unbound was 0.05. The “LogPo:w” value in data set [5] (Study QUA-PG-2011-20593) came to 3.500. In data set [5] (octanol/water, Study QUA-PG-2011-20593), this compound gave a logP of 3.5. For the same compound, the pKa is 6.4 in data set [5] (pKa1 (base)) and 9.6 in data set [5] (pKa2 (base)).

What is called Papp is a coefficient for how fast a substance crosses the barrier. The term Ki denotes a dissociation constant, usually derived from enzyme kinetics or from competition with a known ligand. A lower Ki goes with tighter binding. The IC50 is the concentration needed to halve the response being measured. Low readings indicate higher potency, high ones lower potency. Broadly, the fraction unbound is free concentration divided by total concentration. As a reminder, the logP is the decadic logarithm of the partition coefficient of the neutral form, usually between octanol and water. A word on the pKa: it is the negative logarithm of the acid dissociation constant. Lower therefore signals a stronger acid or weaker base.
